Tested on: healthy subjects
Experiment: Phase 1 healthy volunteer study, single oral dose: treatment-emergent adverse events
Format: in vivo, human
Details: 10 mg
Method: A Phase 1 randomized, double-blind, placebo-controlled study to evaluate the effect of psilocybin on cognitive and emotional processing as compared to placebo in healthy volunteers was conducted. The study investigated the short-term (Day 7) and long-term (Day 28) effects of moderate (10 mg) and high doses (25 mg) of psilocybin on key domains of cognition, such as episodic memory, attention, working and spatial memory, social cognition and elements of executive function, including cognitive flexibility.
90 healthy subjects were studied. Approximately 50% of the subjects were psilocybin-naïve. For subjects with prior psilocybin experience, the last exposure was at least 1 year prior to the signing of the Informed Consent Form (ICF). Approximately 50% of the subjects were female. Subjects were stratified by sex and age (18-35 years old; >35 years old).
Each subject was assigned 1 treatment bottle containing 5 capsules packaged in a double-blind fashion, depending on the randomized treatment arm, the bottle contained one of the following: • a. Psilocybin 10 mg: 2×5-mg oral psilocybin capsules plus 3× placebo capsules • b. Psilocybin 25 mg: 5×5-mg oral psilocybin capsules • c. Placebo: 5× placebo capsules
Each 5-mg oral psilocybin capsule comprised 5 mg crystalline psilocybin in the form of Polymorph A, 12.5 mg of SMCC 50, 79.5 mg of SMCC 90, 1 mg sodium starch glycolate, 1 mg colloidal silicon dioxide, and 1 mg sodium stearyl fumarate
Adverse events: Throughout the course of the study, all AEs were monitored and recorded. Each AE was classified according to the following criteria: • i. […] Moderate: The AE produces some impairment of functioning, but is not hazardous to the subject's health. • iii. Severe: The AE produces significant impairment of functioning or incapacitation and is a definite hazard to the subject's health.
Selected Adverse Events of included: • (a) Euphoric mood • (b) Dissociative disorder • (c) Hallucination • (d) Psychotic disorder • (e) Cognitive disorder • (f) Disturbance in attention • (g) Altered mood • (h) Impairment of psychomotor skills • (i) Inappropriate affect • (j) Overdose • (k) Intentional product misuse • (l) Illusion
For example, drug-induced hepatitis that resolved without evidence of hepatic failure would not be considered life threatening even though drug-induced hepatitis can be fatal. • (c) Inpatient hospitalization or prolongation of existing hospitalization. • (d) Persistent or significant disability/incapacity. • (e) Congenital anomaly/birth defect in the offspring of a subject who received psilocybin. • (f) Other: Important medical events that may not result in death, be life-threatening, or require hospitalization, may be considered an SAE when, based upon appropriate medical judgment, they may jeopardize the subject and may require medical or surgical intervention to prevent one of the outcomes listed in this definition. […] Visits:
Visit 3 (V3): Drug Administration (Day 0): The subject was asked to eat a light breakfast at least two hours prior to coming to the clinic for study drug administration. On Day 0 (V3), the subject underwent the SSTS, had vital signs obtained, medications reviewed, AEs recorded and eligibility reviewed prior to being randomized to study drug. The study drug was administered to up to six subjects simultaneously in individual beds separated by a curtain. The subject was invited to put on eyeshades and headphones, lie down and listen to calming music for the rest of the session (six hours). The subject was supported 1:1 with a chaperone and supervised by the study psychiatrist and lead therapist.
Recording of adverse events and prior/concomitant medication was performed at each visit.
During administration of psilocybin, each subject received one on one support from a trained assisting therapist and each dosing session was supervised by a study psychiatrist and a lead therapist. […]

CN(C)CCc1c[nH]c2cccc(OP(=O)(O)O)c12 [psilocybin]
AEs potentially related to study treatment, % of AEs in arm: 92.6% | Affect lability, worst severity Mild: Events: 3 | Affect lability, worst severity Mild: N (%): 3 (10.0) | Affect lability, worst severity Moderate: Events: 2 | Affect lability, worst severity Severe: Events: 0 | Affect lability, worst severity Severe: N (%): 0 | Affect lability: Events: 5 | Any Selected TEAE: % of subjects: (90.0) % | Any Selected TEAE: N (%): 27 | Any TEAE leading to death: Events: 0 | Any TEAE leading to death: N (%): 0 | Any TEAE leading to study discontinuation: Events: 0 | Any TEAE leading to study discontinuation: N (%): 0 | Any TEAE related to study treatment: % of subjects: (96.7) % | Any TEAE related to study treatment: N (%): 29 | Any TEAE, worst severity Mild: Events: 12 | Any TEAE, worst severity Mild: N (%): 6 (20.0) | Any TEAE, worst severity Moderate: Events: 38 | Any TEAE, worst severity Severe: Events: 22 | Any TEAE: % of subjects: 96.7% | Any serious TEAE related to study treatment: Events: 0 | Any serious TEAE related to study treatment: N (%): 0 | Any serious TEAE: Events: 0 | Any serious TEAE: N (%): 0 | Any severe TEAE: % of subjects: (33.3) % | Any severe TEAE: Events: 22 | Any severe TEAE: N (%): 10 | Emotional disorder, worst severity Mild: Events: 1 | Emotional disorder, worst severity Moderate: Events: 1 | Emotional disorder, worst severity Severe: Events: 0 | Emotional disorder, worst severity Severe: N (%): 0 | Emotional disorder: Events: 2 | Euphoric mood, worst severity Mild: Events: 0 | Euphoric mood, worst severity Mild: N (%): 0 | Euphoric mood, worst severity Moderate: Events: 6 | Euphoric mood, worst severity Moderate: N (%): 6 (20.0) | Euphoric mood, worst severity Severe: Events: 1 | Euphoric mood: Events: 7 | Fatigue, worst severity Mild: Events: 6 | Fatigue, worst severity Mild: N (%): 6 (20.0) | Fatigue, worst severity Moderate: Events: 3 | Fatigue, worst severity Severe: Events: 1 | Fatigue: Events: 10 | Fatigue: N (%): 9 (30.0) | Feeling abnormal, worst severity Mild: Events: 3 | Feeling abnormal, worst severity Mild: N (%): 3 (10.0) | Feeling abnormal, worst severity Moderate: Events: 1 | Feeling abnormal, worst severity Severe: Events: 0 | Feeling abnormal, worst severity Severe: N (%): 0 | Feeling abnormal: Events: 4 | Feeling of relaxation: Events: 5 | Feeling of relaxation: N (%): 3 (10.0) | Gastrointestinal disorders, worst severity Mild: Events: 3 | Gastrointestinal disorders, worst severity Mild: N (%): 3 (10.0) | Gastrointestinal disorders, worst severity Moderate: Events: 1 | Gastrointestinal disorders, worst severity Severe: Events: 0 | Gastrointestinal disorders, worst severity Severe: N (%): 0 | Gastrointestinal disorders: Events: 4 | General disorders and administration site conditions, worst severity Mild: Events: 17 | General disorders and administration site conditions, worst severity Moderate: Events: 6 | General disorders and administration site conditions, worst severity Moderate: N (%): 3 (10.0) | General disorders and administration site conditions, worst severity Severe: Events: 1 | General disorders and administration site conditions: Events: 27 | Hallucination, auditory, worst severity Mild: Events: 1 | Hallucination, auditory, worst severity Moderate: Events: 1 | Hallucination, auditory, worst severity Severe: Events: 2 | Hallucination, auditory: Events: 4 | Hallucination, tactile: Events: 2 | Hallucination, visual, worst severity Mild: Events: 3 | Hallucination, visual, worst severity Mild: N (%): 3 (10.0) | Hallucination, visual, worst severity Moderate: Events: 8 | Hallucination, visual, worst severity Severe: Events: 7 | Hallucination, visual: Events: 20 | Hallucination, worst severity Mild: Events: 0 | Hallucination, worst severity Mild: N (%): 0 | Hallucination, worst severity Moderate: Events: 3 | Hallucination, worst severity Moderate: N (%): 3 (10.0) | Hallucination, worst severity Severe: Events: 0 | Hallucination, worst severity Severe: N (%): 0 | Hallucination: Events: 3 | Hallucination: N (%): 3 (10.0) | Headache, worst severity Mild: Events: 12 | Headache, worst severity Mild: N (%): 9 (30.0) | Headache, worst severity Moderate: Events: 0 | Headache, worst severity Moderate: N (%): 0 | Headache, worst severity Severe: Events: 0 | Headache, worst severity Severe: N (%): 0 | Headache: Events: 12 | Headache: N (%): 9 (30.0) | Hypoaesthesia, worst severity Mild: Events: 2 | Hypoaesthesia, worst severity Moderate: Events: 0 | Hypoaesthesia, worst severity Moderate: N (%): 0 | Hypoaesthesia, worst severity Severe: Events: 0 | Hypoaesthesia, worst severity Severe: N (%): 0 | Hypoaesthesia: Events: 2 | Illusion, worst severity Mild: Events: 7 | Illusion, worst severity Moderate: Events: 6 | Illusion, worst severity Severe: Events: 0 | Illusion, worst severity Severe: N (%): 0 | Illusion: Events: 25 | Infections and infestations, worst severity Mild: Events: 2 | Infections and infestations, worst severity Moderate: Events: 2 | Infections and infestations, worst severity Severe: Events: 0
